# Measured values reported in US6274715A, “Tricyclic erythromycin derivatives” (priority 1997, dated 2001).
# Columns and labels:
# Assay type in all cases: cell-based
# [1] = test system: STAPHYLOCOCCUS AUREUS ATCC 6538P; assay: In vitro antibacterial activity, MIC, BHI agar dilution; details: S. aureus ATCC 6538P, 35-37° C., 20 to 24 hours, unit assumed
# [2] = test system: STAPHYLOCOCCUS AUREUS A5177; assay: as above; details: S. aureus A5177, unit assumed
# [3] = test system: STAPHYLOCOCCUS AUREUS A-5278; assay: as above; details: S. aureus A-5278, unit assumed
# [4] = test system: STAPHYLOCOCCUS AUREUS CMX 642A; assay: as above; details: S. aureus CMX 642A, unit assumed
# [5] = test system: STAPHYLOCOCCUS AUREUS NCTC10649M; assay: as above; details: S. aureus NCTC10649M, unit assumed
# [6] = test system: STAPHYLOCOCCUS AUREUS CMX 553; assay: as above; details: S. aureus CMX 553, unit assumed
# [7] = test system: STAPHYLOCOCCUS AUREUS 1775; assay: as above; details: S. aureus 1775, unit assumed
# [8] = test system: STAPHYLOCOCCUS EPIDERMIDIS 3519; details: S. epidermidis 3519; BHI agar; unit assumed
# EN[…] ATCC 8043 = assay: In vitro antibacterial activity, MIC, BHI agar dilution; details: E. faecium ATCC 8043, unit assumed
# Method in brief: (§1)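 Agar dilution in BHI: plates inoculated with 1:100 dilutions of organisms (1:10 for Micrococcus and Streptococcus), incubated 20-24 h at 35-37° C, then inspected for the lowest inhibitory concentration against a drug-free growth control.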
# M[…] ATCC 4698 = assay: as above; details: M. luteus ATCC 4698, unit assumed
# Method in brief: as §1
# M[…] ATCC 9341 = assay: as above; details: M. luteus ATCC 9341, unit assumed
# Method in brief: as §1
# STR[…] 508 = assay: as above; details: S. agalactiae CMX 508, unit assumed
# Method in brief: as §1
# [9] = test system: STREPTOCOCCUS BOVIS A-5169; assay: as above; details: S. bovis A-5169, unit assumed
# [10] = test system: STREPTOCOCCUS PYOGENES EES61; assay: as above; details: S. pyogenes EES61, unit assumed
# [11] = test system: STREPTOCOCCUS PYOGENES 930; assay: as above; details: S. pyogenes 930, unit assumed
# [12] = test system: STREPTOCOCCUS PYOGENES PIU 2548; assay: as above; details: S. pyogenes PIU 2548, unit assumed
# ESCHERICHIA COLI JUHL = details: E. coli JUHL; BHI agar; unit assumed
# ESCHERICHIA COLI DC-2 = assay: In vitro antibacterial activity, MIC, BHI agar dilution; details: E. coli DC-2, unit assumed
# ESCHERICHIA COLI H560 = assay: as above; details: E. coli H560, unit assumed
# ESCHERICHIA COLI KNK 437 = details: E. coli KNK 437; BHI agar; unit assumed
# [13] = test system: ENTEROBACTER AEROGENES ATCC 13048; assay: In vitro antibacterial activity, MIC, BHI agar dilution; details: E. aerogenes ATCC 13048, unit assumed
# [14] = test system: KLEBSIELLA PNEUMONIAE ATCC 8045; assay: as above; details: K. pneumoniae ATCC 8045, unit assumed
# [15] = test system: PROVIDENCIA STUARTII CMX 640; details: P. stuartii CMX 640; BHI agar; unit assumed
# [16] = test system: PSEUDOMONAS AERUGINOSA BMH10; assay: In vitro antibacterial activity, MIC, BHI agar dilution; details: P. aeruginosa BMH10, unit assumed
# [17] = test system: PSEUDOMONAS AERUGINOSA 5007; assay: as above; details: P. aeruginosa 5007, unit assumed
# [18] = test system: PSEUDOMONAS AERUGINOSA K799/WT; assay: as above; details: P. aeruginosa K799/WT, unit assumed
# [19] = test system: PSEUDOMONAS AERUGINOSA K799/61; assay: as above; details: P. aeruginosa K799/61, unit assumed
# PSEUDOMONAS CEPACIA 296I = assay: as above; details: P. cepacia 296I, unit assumed
# [20] = test system: PSEUDOMONAS AERUGINOSA DPHD-5263; assay: as above; details: P. aeruginosa DPHD-5263, unit assumed
# [21] = test system: PSEUDOMONAS AERUGINOSA DPHD-2862; assay: as above; details: P. aeruginosa DPHD-2862, unit assumed
# CANDIDA ALBICANS CCH 442 = assay: as above; details: C. albicans CCH 442, unit assumed
# ESCHERICHIA COLI SS = assay: as above; details: E. coli SS, unit assumed
# [22] = test system: MYCOBACTERIUM SMEGMATIS ATCC 114; assay: as above; details: M. smegmatis ATCC 114, unit assumed
Structure (SMILES),MIC [2],MIC [3],MIC [4],MIC [6],MIC [7],MIC [8],MIC (EN[…] ATCC 8043),MIC (M[…] ATCC 4698),MIC (M[…] ATCC 9341),MIC [10],MIC [11],MIC [12],MIC (ESCHERICHIA COLI JUHL),MIC (ESCHERICHIA COLI DC-2),MIC (ESCHERICHIA COLI H560),MIC (ESCHERICHIA COLI KNK 437),MIC [13],MIC [14],MIC [15],MIC [16],also measured
CC[C@H]1OC(=O)[C@H](C)C(=O)[C@H](C)[C@@H](O[C@@H]2O[C@H](C)C[C@H](N(C)C)[C@H]2O)[C@](C)(OC)C[C@@H](C)C2=NC3CN(C(C)c4ccccc4)CC3N3C(=O)O[C@@]1(C)[C@H]3[C@H]2C (stereo partly drawn) [Example 113],0.39 µg/mL,> 100 µg/mL,0.78 µg/mL,0.78 µg/mL,> 100 µg/mL,1.56 µg/mL,0.2 µg/mL,0.78 µg/mL,0.1 µg/mL,0.05 µg/mL,> 100 µg/mL,0.39 µg/mL,> 100 µg/mL,> 100 µg/mL,50 µg/mL,> 100 µg/mL,> 100 µg/mL,> 100 µg/mL,> 100 µg/mL,> 100 µg/mL,MIC [1]: 0.78 µg/mL; MIC [5]: 0.78 µg/mL; MIC (STR[…] 508): 0.2 µg/mL; MIC [9]: 0.01 µg/mL; MIC [17]: > 100 µg/mL; MIC [18]: > 100 µg/mL; MIC [19]: 3.1 µg/mL; MIC (PSEUDOMONAS CEPACIA 296I): > 100 µg/mL; MIC [20]: > 100 µg/mL; MIC [21]: > 100 µg/mL; MIC (CANDIDA ALBICANS CCH 442): > 100 µg/mL
CCOC(=O)CCN1CC2N=C3C(C)CC(C)(OC)C(OC4OC(C)CC(N(C)C)C4O)C(C)C(=O)C(C)C(=O)OC(CC)C4(C)OC(=O)N(C2C1)C4C3C (stereo not drawn) [Example 130],0.78 µg/mL,> 100 µg/mL,1.56 µg/mL,1.56 µg/mL,> 100 µg/mL,3.1 µg/mL,0.2 µg/mL,0.78 µg/mL,0.2 µg/mL,0.1 µg/mL,> 100 µg/mL,6.2 µg/mL,> 100 µg/mL,> 100 µg/mL,> 100 µg/mL,> 100 µg/mL,> 100 µg/mL,> 100 µg/mL,> 100 µg/mL,> 100 µg/mL,MIC (STR[…] 508): 0.1 µg/mL; MIC [9]: 0.1 µg/mL; MIC (ESCHERICHIA COLI SS): 0.78 µg/mL; MIC [17]: > 100 µg/mL; MIC [18]: > 100 µg/mL; MIC [19]: 3.1 µg/mL; MIC (PSEUDOMONAS CEPACIA 296I): > 100 µg/mL; MIC [20]: > 100 µg/mL; MIC [21]: > 100 µg/mL; MIC (CANDIDA ALBICANS CCH 442): > 100 µg/mL; MIC [22]: 25 µg/mL
CC[C@H]1OC(=O)[C@H](C)C(=O)[C@H](C)[C@@H](O[C@@H]2O[C@H](C)C[C@H](N(C)C)[C@H]2O)[C@](C)(OC)C[C@@H](C)C2=NCC(COC(=O)c3ccnc4ccccc34)N3C(=O)O[C@@]1(C)[C@H]3[C@H]2C (stereo partly drawn) [Example 137],0.02 µg/mL,> 100 µg/mL,0.05 µg/mL,0.05 µg/mL,> 100 µg/mL,0.05 µg/mL,0.01 µg/mL,0.2 µg/mL,0.01 µg/mL,0.01 µg/mL,6.2 µg/mL,0.2 µg/mL,25 µg/mL,12.5 µg/mL,12.5 µg/mL,25 µg/mL,100 µg/mL,100 µg/mL,100 µg/mL,100 µg/mL,MIC [1]: 0.02 µg/mL; MIC [5]: 0.05 µg/mL; MIC (ESCHERICHIA COLI SS): 0.02 µg/mL; MIC [17]: 100 µg/mL; MIC [18]: 50 µg/mL; MIC [19]: 0.2 µg/mL; MIC (PSEUDOMONAS CEPACIA 296I): 50 µg/mL; MIC [20]: 100 µg/mL; MIC [21]: 50 µg/mL; MIC (CANDIDA ALBICANS CCH 442): > 100 µg/mL; MIC [22]: 0.2 µg/mL
